{"source": "patent US20030232747A1", "about": "“Method of identifying a pharmaceutically active compound for the treatment of a condition caused by altered expression of the insulin receptor” (priority 2002, published 2003)", "key": {"[1]": {"system": "insulin receptor mRNA splice variants Ex11+/Ex11-", "experiment": "RT-PCR and densitometric analysis of insulin receptor mRNA splice variants in penile tissue after castration and testosterone replacement", "assay_type": "in vivo, rat", "description": "Tissue samples (100-200 mg) were pulverized in liquid nitrogen. Total RNA was isolated using guanidium thocyanate, phenol-chloroform extraction (pecLab, Erlangen, Germany). The RNA was precipitated with isopropanol at −20° C. for 2 h, washed with 75% ethanol, dissolved in diethylpyrocarbonate water and quantified spectrometrically at 260 nm. The ratio of absorption of all preparations was between 1.8 and 2.0. To ensure that concentration was identical in each sample, the intensity of 28 sRNA was compared on an 1% agarose gelectrophoresis after ethidium bromide staining. Total RNA was stored at −80° C. until further use.\nFirst strand cDNA synthesis was carried out using a commercially available kit (Gibco BRL). Briefly, 4 μg of total RNA was primed with 0,5 μg of oligo(dT)12-18 and incubated 10 min at 70° C. For each sample lx first strand puffer, 0,2M DTT, 10 mM dNTP's and 200U of Superscript II reverse transcriptase were added. Reverse transcription was performed at 42° C. for 50 min and stopped by heating for 15 min. at 70° C. The resulting cDNA templates were stored at −20° C. or directly used for PCR.\nAfter a denaturation period of 3 min the PCR reaction was followed by 35 cycles of 95° C. for 60 sec., 60° C. for 60 sec. and 72° C. for 60 sec. PCR was performed with 6 μl cDNA, 10 mM of each dNTP, 5U Taq-Polymerase (Biotherm) and 50 pmol of both sense and antisense primers in PCR buffer. The final volume of each reaction was 50 μl. Reaction products (15 μl) were run on a 2.5% agarose gel. Primers used for PCR were: […]\nDensitometric analysis of the insulin receptor mRNA splice variant levels was performed using the Image Quant 5.0 software.\nFor the proportion of the two insulin receptor variant mRNA levels, significance of the difference of the mean values was determined by unpaired student's t-test. The threshold for signigicance was set at p<0.05.\nPellets for testosterone-or placebo-implantation were received from Innovative Research of America, Sarasota, Fla., USA. […]"}, "[2]": {"experiment": "Organ weights after castration and testosterone replacement in young rats", "assay_type": "in vivo, rat", "description": "Pellets for testosterone-or placebo-implantation were received from Innovative Research of America, Sarasota, Fla., USA. To evaluate the effects of castration and testosterone replacement male wistar rats (3 months, n=21) were divided into three groups: Group 1, intact (shame operated, given a placebo-pellet by implantation under the dorsal skin, n=7), group 2, castrated (implantation of placebo-pellet, n=7) and group 3, castrated, but given a testosterone-implantate of 15 mg (n=7). 3 weeks after treatment rats were killed and penile tissue as well as blood samples were treated as described in example 1. The experimental study was conducted in accordance with the general federal law on the care and use of laboratory animals.\nIt was noted that the level of testosterone in the serum of young versus old rats were 4.436±1.1 and 0.57±0.17 ng/ml (mean±SD, n=4) respectively, pointing to a drop in the level of testosterone in circulation of aged animals. This is in agreement with Zirkins lab (Zirkin et al., Exp. Gerontol. 32:529-537 (1997); Zirkin and Chen, Biol. Reprod. 63:977-981 (2000)). In order to discern if the observed ageing related alteration in the expression of two splice variants of insulin receptor mRNA could be due to a declining androgen level in the ageing rats, we have performed orchiedectomy on young rats. One group of castrated rats received androgen releasing subcutanous implant. […] The effect of castration and andorgen-replacement of the insulin receptor mRNA expression in penile tissue of young rats is presented in FIG. 4a. […] Following castration, the appearance of the smaller splice variant was observed, the pattern resembling the old animals."}, "[3]": {"settings": "young castrated rats with androgen supplementation (testosterone implant 15 mg), 3 weeks, FIG. 4b"}, "[4]": {"settings": "young (3 months) castrated male wistar rats, testosterone implant 15 mg, 3 weeks after treatment, n=7"}}}
{"compound": "C[C@]12CC[C@H]3[C@@H](CCC4=CC(=O)CC[C@@]43C)[C@@H]1CC[C@@H]2O", "note": "[testosterone]", "values": [{"measurement": "Relative proportion of Ex11+ insulin receptor mRNA in penis", "setting": "[1]; [3]", "result": 22.8, "unit": "%"}, {"measurement": "Relative proportion of Ex11- insulin receptor mRNA in penis", "setting": "[1]; [3]", "result": 77.2, "unit": "%"}, {"measurement": "Appearance of the smaller insulin receptor splice variant (Ex11-) in penile tissue (in words)", "setting": "[1]; young castrated rats with androgen supplementation, FIG. 4a", "result": "this isoform persisted"}, {"measurement": "Penis weight in relation to body weight", "setting": "[2]; [4]", "result": "78.55 ± 5.54", "unit": "mg/100 g body weight"}, {"measurement": "Prostate weight in relation to body weight", "setting": "[2]; [4]", "result": "92.37 ± 33.89", "unit": "mg/100 g body weight"}, {"measurement": "Effect on castration-induced reduction of penis and prostate weight (in words)", "setting": "[2]; young castrated rats, testosterone replacement", "result": "induced a reversal of this effect in both organs"}]}
